Marks after values point to notes of the source that are not given here.
Tests used:
obese mouse model = experiment: Collection and observation of fat and liver tissues of obese mice; assay type: in vivo, C57BL/6 mice; conditions: for perirenal fat percentage quality: HFD I blank 1.63 ± 0.10; for Epididymal fat percentage quality: HFD I blank 2.99 ± 0.08; for Liver percentage quality: HFD I blank 3.51 ± 0.07
Description: 2. Method: After administration test in Embodiment 8, the mice were denied food overnight. Their abdominal cavity was opened to observe abdominal fat content in each group of the mice. Epididymal fat, perirenal fat and liver were separated and weighed.

[1] = Stability assessment (influencing factors, acceleration and long-term tests, Chinese Pharmacopoeia 2010); assay type: physicochemical; conditions: high temperature, high humidity, strong light
Procedure: Considering that prototype drug stearoyl amino acid tend to absorb moisture, cake and become yellowish during long-term storage, the stearoyl amino acid is now converted into a form of active salt thereof. And the stability of NsTyr-2K and NsTyr-2Na was tested as required for bulk pharmaceutical chemicals according to the People's Republic of China Pharmacopoeia 2010.

CCCCCCCCCCCCCCCCCC(=O)N[C@@H](Cc1ccc(O)cc1)C(=O)[O-].[K+] [NsTyr-2K, N-stearoyl tyrosine potassium salt]
perirenal fat percentage quality (obese mouse model; 20 mg/kg/day): 1.51 ± 0.07 g/100 g weight
Epididymal fat percentage quality (obese mouse model; 20 mg/kg/day): 2.94 ± 0.11 g/100 g weight
Liver percentage quality (obese mouse model; 20 mg/kg/day): 3.47 ± 0.05 g/100 g weight
perirenal fat percentage quality (obese mouse model; 60 mg/kg/day): 1.37 ± 0.04 g/100 g weight
Epididymal fat percentage quality (obese mouse model; 60 mg/kg/day): 2.72 ± 0.07 g/100 g weight
Liver percentage quality (obese mouse model; 60 mg/kg/day): 3.41 ± 0.06***^ g/100 g weight
perirenal fat percentage quality (obese mouse model; 100 mg/kg/day): 1.26 ± 0.05 g/100 g weight
Epididymal fat percentage quality (obese mouse model; 100 mg/kg/day): 2.64 ± 0.08 g/100 g weight
Liver percentage quality (obese mouse model; 100 mg/kg/day): 3.46 ± 0.07***^ g/100 g weight
abdominal fat pad (obese mouse model; increasing doses 20, 60, 100 mg/kg/day, compared with HFD I): the abdominal fat pad showed a shrinking trend
abdominal fat quality, compared with Orlistat (obese mouse model; same dose (100 mg/kg)): better effects in reducing abdominal fat quality than Orlistat
stability [1]: stable properties

Reference: patent publication US9914698B2, “Stearoyl amino acid salt and preparation method and application thereof” (Shanghai Jiaotong University School of Medicine, priority 2014, dated 2018)
